Measurements: US20260146039A1, “NEUR[…] THE TREATMENT OF PAIN, ITCH AND NERVE INJURY” (Cacti, Inc., priority 2023, published 2026)

Assays:
[1] = tested on: cultured dorsal root ganglion (DRG) neurons; experiment: Calcium flux in cultured DRG neurons (Fura-2AM calcium imaging); assay type: cell-based, mice
Procedure: Methods: Assessment of Compound 1 Induced Calcium Flux in Cultured DRG Neurons To evaluate the effect of Compound 1 and Compound 2 on calcium flux in cultured dorsal root ganglion (DRG) neurons isolated from 8-week-old male mice, the following protocols were performed:
• 8-week-old C57BL6 male mice • Fura-2AM (calcium indicator dye) • Compound 1 (at concentrations of 1 μM and 10 μM) • Compound 2 (at concentrations of 1 μM and 10 μM) • ATP (P2X3R agonist, 10 μM) • Capsaicin (TRPV1 ligand, 10 μM) • KCl (50 mM) • Calcium imaging setup (calcium microscope)
• Euthanize 8-week-old male mice according to ethical guidelines. • Harvest the dorsal root ganglia (DRG) from the mice.
• Culture the DRG neurons in appropriate growth media for 24 hours. 3. […]
• Measure and record the average calcium flux (A). • Determine the percentage of responding neurons, identifying responding neurons as those with an f340/f380 fluorescence ratio >10% (B).
Eight-week-old C57BL6 male mice were euthanized, DRG harvested, and neurons cultured for 24 hours. The neurons were then loaded with Fura-2AM, a calcium-responsive dye, and single-neuron calcium flux was recorded by calcium microscopy. […] Average calcium flux (FIG. 1A) and the percentage (FIG. 1B) of responding neurons (identified as f340/f380>10% fluorescence) are shown. […]

C57BL6 mice = experiment: CFA inflammatory pain model, Blackbox behavioral analysis of hind paw usage; assay type: in vivo; conditions: for reversal of CFA-induced mechanical hypersensitivity: beginning at 24 hours after intraplantar administration
Excerpt: To evaluate the effect of different treatments on voluntary pain-related behaviors in mice, we used the Blackbox behavioral analysis system, as previously described (Zhang, et al., PAIN, 2022 Dec. 1; 163 (12): 2326-2336, incorporated herein by reference in its entirety).
• Male and female C57BL6 mice (n=5 per group) • Complete Freund's Adjuvant (CFA, Sigma) • Saline • PBS • DMSO • Compound 1 • Compound 2 • Syringes (for injections) • Hargreaves apparatus (for thermal pain testing) • Blackbox behavioral analysis setup
• Divide mice into groups (n=10 per group). • Inject 20 μL of CFA or saline into the right hind paw of each mouse.
• 24 hours after CFA injection, randomly assign mice to the following groups: • Control Group: PBS+PBS • CFA+PBS Group • CFA+DMSO Group • CFA+Compound 1 Group • CFA+Compound 2 Group
• Inject the designated treatment (PBS (20 μL), DMSO (20 μL), Compound 1 (1 μM in 20 μL PBS), or Compound 2 (1 μM in 20 μL DMSO)) into the plantar right paw of each mouse according to their assigned group.
• Perform Blackbox behavioral analysis and Hargreaves test at the following time points after drug injection: 1 hour, 3 hours, 6 hours, and 24 hours.
• Blackbox Behavioral Analysis: • Place each mouse in the Blackbox apparatus for 10 minutes. • Record and analyze behaviors indicative of pain or discomfort (e.g., grooming, paw licking, flinching).
• Record the data for each mouse at each time point. • Compare the results across different groups to assess the effects of the treatments on pain response.
This protocol outlines the steps to assess the impact of different treatments on pain response in mice using Blackbox behavioral analysis. Mice are injected with CFA or saline, followed by treatment with Compound 1 or Compound 2, and negative controls using vehicle (PBS or DMSO) alone.
• 1. Control Group: PBS+PBS • 2. CFA+PBS Group • 3. CFA+DMSO Group • 4. CFA+Compound 1 Group • 5. CFA+Compound 2 Group
• 1 hour after drug injection • 3 hours after drug injection • 6 hours after drug injection • 24 hours after drug injection Precise timing and consistent handling throughout the experiment were utilized to maintain the validity of the results.
Effect of Compound 1. Eight-week-old male and female mice (n=5 mice/group) were injected with CFA (20 μL; intradermal) or saline (20 μL) into the right hind paw. Left (contralateral) hindpaw luminance (FIG. 3A) and ratio of time (FIG. 3B), as well as right hindpaw luminance (FIG. 4A) and ratio of time (FIG. 4B), were assessed as surrogates for mechanical pain hypersensitivity at 1-, 3-, 6-, and 24-hours post-treatment.
Data were analyzed using a two-way ANOVA to assess the effects of CFA injection and subsequent treatments on hindpaw usage and thermal pain hypersensitivity. Post-hoc comparisons were performed using Dunnett's test to identify significant differences between treatment groups.
Effect of Compound 2. Eight-week-old male and female mice (n=5 mice/group) were injected with CFA (20 μL; intradermal) or saline (20 μL) into the right hind paw. Left (contralateral) hind paw luminance (FIG. 5A) and ratio of time (FIG. 5B), as well as right hindpaw luminance (FIG. 6A) and ratio of time (FIG. 6B), were assessed as a readout of mechanical pain hypersensitivity at 1-, 3-, 6-, and 24-hours post-treatment.
Data were analyzed using a two-way ANOVA to assess the effects of CFA injection and subsequent treatments on hindpaw usage (mechanical hypersensitivity). Post-hoc comparisons were performed using Dunnett's test to identify significant differences between treatment groups.

[2] = Compound 1, 1 μM in 20 μL PBS, plantar right paw, 24 hours after CFA, 1, 3, 6, 24 hours post-treatment

Structure (SMILES) | calcium flux / activation of DRG neurons (interpretation) [1] | CFA-induced durable reduction of right paw usage (C57BL6 mice; [2]) | left (contralateral) paw usage after CFA in the right paw, compared to control mice (C57BL6 mice; [2]) | reversal of CFA-induced mechanical hypersensitivity (C57BL6 mice) | left (contralateral) paw usage after CFA in the right paw, compared to control mice (C57BL6 mice; Compound 2, 1 μM in 20 μL DMSO, plantar right paw, 24 hours after CFA, 1, 3, 6, 24 hours post-treatment) | CFA-induced durable reduction of right (injured) paw usage (C57BL6 mice; Compound 2, 1 μM in 20 μL DMSO, plantar right paw, effect beginning 24 hours after compound administration)
CCN(CC)C(=O)[C@@H]1C=C2c3cccc4[nH]cc(c34)C[C@H]2[N+](C)(CC)C1 (stereo partly drawn) [Compound 1, (6aR,9R)-9-(diethylcarbamoyl)-7-ethyl-7-methyl-4,6,6a,7,8,9-hexahydroindolo[4,3-fg]quinolin-7-ium Iodide] | produced calcium flux | partly reduced | did not change | partial reversal |  | 
CCCCCC[N+]1(C)C[C@H](C(=O)N(CC)CC)C=C2c3cccc4[nH]cc(c34)C[C@H]21 (stereo partly drawn) [Compound 2, (6aR,9R)-9-(diethylcarbamoyl)-7-hexyl-7-methyl-4,6,6a, 7,8,9-hexahydroindolo[4,3-fg]quinolin-7-ium Iodide] | did not produce calcium flux |  |  | partial reversal | did not change | partly reduced
